Legend:
[1] = tested on: BALB/c mice; assay: Immunization test on mice: specific IgG1 and IgG2a by ELISA; format: in vivo; conditions: Tat vaccine compositions; level and dispersion of the results between mice
Protocol: 5. Immunization Test on Mice.
There are available 4 groups of 6 female BALB/c mice 8 weeks old to which one of the compositions prepared in example 4 is injected subcutaneously at the rate of a dose of 200 μl per mouse; the injections are performed on D0 and at D21.
Blood samples are collected at the retro-orbital sinus at D14 for assessing the primary response and at D32 for the secondary response. The determination of the level of specific IgG1 and IgG2a is carried out by virtue of the standard ELISA tests.
The results obtained as regards the humoral responses are summarized in the table below and in FIGS. 1 to 4, where the IgG levels are expressed as arbitrary ELISA units (log10).
For each group of mice, the value indicated in the table is the mean geometric titer of the values obtained for each of the mice.

[2] = tested on: dendritic cells derived from human monocytes; assay: Stimulation of human cells in vitro: ELISA of secreted cytokines; format: cell-based; conditions: 2 days culture; DPPC liposomes, R-848 2.96 μg/ml, ER804057 0.1 μg/ml; mean of 4 donors
Protocol: (§1) The capacity of the compositions according to the invention to induce the maturation of dendritic cells derived from human monocytes in vitro is evaluated for 4 independent donors. The monocytes are obtained from peripheral blood mononuclear cells and are cultured for 5-6 days in the presence of IL4 and of GM-CSF. […] There are then carried out a phenotype analysis by flow cytometry, making it possible to measure the expression of the maturation markers CD25, CD80 and CD83, and an ELISA measurement of the cytokines (TNF-α, IL6 and IL12p70) secreted by these cells. The results indicated in the tables below represent the mean values calculated for the 4 donors: […]

[3] = tested on: dendritic cells derived from human monocytes; assay: Stimulation of human cells in vitro: maturation markers by flow cytometry; format: cell-based; conditions: 2 days culture; DPPC liposomes, R-848 2.96 μg/ml, ER804057 0.1 μg/ml; mean of 4 donors
Protocol: as §1

[4] = target: T1, Toll-like 7 receptor (Homo sapiens, UniProt Q9NYK1); conditions: cited from earlier work
T1 sequence (Q9NYK1 27-1049): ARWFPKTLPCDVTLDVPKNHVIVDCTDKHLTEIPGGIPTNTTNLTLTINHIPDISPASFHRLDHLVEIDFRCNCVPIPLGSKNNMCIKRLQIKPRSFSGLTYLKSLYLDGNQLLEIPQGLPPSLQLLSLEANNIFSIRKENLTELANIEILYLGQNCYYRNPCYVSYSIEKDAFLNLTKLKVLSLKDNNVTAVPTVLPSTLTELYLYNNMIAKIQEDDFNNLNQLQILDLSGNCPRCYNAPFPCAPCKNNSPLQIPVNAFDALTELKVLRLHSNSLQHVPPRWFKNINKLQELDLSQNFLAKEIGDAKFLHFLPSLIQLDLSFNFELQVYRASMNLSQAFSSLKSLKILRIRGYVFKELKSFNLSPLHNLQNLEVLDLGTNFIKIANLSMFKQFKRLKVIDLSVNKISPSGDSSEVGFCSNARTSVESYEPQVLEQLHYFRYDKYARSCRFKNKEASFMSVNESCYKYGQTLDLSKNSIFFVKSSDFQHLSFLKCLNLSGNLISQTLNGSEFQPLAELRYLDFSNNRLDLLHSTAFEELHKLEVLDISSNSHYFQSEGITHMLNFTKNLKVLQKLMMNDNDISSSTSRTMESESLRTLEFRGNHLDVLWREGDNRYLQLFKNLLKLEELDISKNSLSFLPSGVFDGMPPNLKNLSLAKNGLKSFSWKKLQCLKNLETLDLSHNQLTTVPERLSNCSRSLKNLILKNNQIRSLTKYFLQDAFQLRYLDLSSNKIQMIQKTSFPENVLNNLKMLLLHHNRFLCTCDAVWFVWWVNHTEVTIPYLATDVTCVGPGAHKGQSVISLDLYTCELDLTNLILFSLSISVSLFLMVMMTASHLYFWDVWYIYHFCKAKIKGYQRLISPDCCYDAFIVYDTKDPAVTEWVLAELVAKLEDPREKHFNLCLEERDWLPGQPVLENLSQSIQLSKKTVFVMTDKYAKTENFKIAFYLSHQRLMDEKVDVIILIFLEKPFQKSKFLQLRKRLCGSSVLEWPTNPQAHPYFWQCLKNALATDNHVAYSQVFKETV

[5] = tested on: mice; conditions: ovalbumin as antigen; cited from earlier work
[6] = target: T2, Toll-like 8 receptor (Homo sapiens, UniProt Q9NR97); conditions: cited from earlier work
T2 sequence (Q9NR97 27-1041): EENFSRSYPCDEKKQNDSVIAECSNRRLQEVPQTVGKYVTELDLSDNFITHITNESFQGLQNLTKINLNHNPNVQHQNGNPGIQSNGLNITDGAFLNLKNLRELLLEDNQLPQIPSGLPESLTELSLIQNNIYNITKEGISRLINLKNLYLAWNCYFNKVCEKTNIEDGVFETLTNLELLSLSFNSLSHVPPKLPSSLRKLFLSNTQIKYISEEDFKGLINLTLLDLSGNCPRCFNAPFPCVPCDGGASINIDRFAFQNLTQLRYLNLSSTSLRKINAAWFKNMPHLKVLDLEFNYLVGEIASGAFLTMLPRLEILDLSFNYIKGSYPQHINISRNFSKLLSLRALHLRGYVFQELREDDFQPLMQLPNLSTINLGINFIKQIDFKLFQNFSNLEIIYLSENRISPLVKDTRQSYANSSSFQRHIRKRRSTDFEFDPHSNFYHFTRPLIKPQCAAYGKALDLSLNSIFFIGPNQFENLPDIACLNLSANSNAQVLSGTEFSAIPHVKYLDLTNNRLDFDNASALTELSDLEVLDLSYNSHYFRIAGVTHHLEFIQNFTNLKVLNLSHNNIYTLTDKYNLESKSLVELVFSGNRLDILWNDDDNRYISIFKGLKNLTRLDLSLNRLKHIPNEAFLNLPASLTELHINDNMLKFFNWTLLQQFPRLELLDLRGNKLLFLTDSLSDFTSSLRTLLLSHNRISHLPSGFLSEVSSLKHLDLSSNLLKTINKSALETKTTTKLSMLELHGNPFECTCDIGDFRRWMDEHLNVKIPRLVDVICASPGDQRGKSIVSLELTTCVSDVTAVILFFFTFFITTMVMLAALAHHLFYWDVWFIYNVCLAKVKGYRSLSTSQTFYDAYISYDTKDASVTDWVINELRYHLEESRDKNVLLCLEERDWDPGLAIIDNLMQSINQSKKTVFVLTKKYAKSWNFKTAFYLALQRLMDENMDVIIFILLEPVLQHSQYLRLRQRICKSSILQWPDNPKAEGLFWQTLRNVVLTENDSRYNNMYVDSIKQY

Row | SMILES | IgG2a response obtained after the injection of the booster, individual mice (FIGS. 1 to 4) [1] | Quantity of cytokines IL 6 [2] [pg/mL] | Quantity of cytokines IL12p70 [2] [pg/mL] | Quantity of cytokines TNF-α [2] [pg/mL] | Percentage of cells expressing the markers CD25 [3] [%] | Percentage of cells expressing the markers CD80 [3] [%] | Percentage of cells expressing the markers CD83 [3] [%] | activation of cells via the Toll-like 7 receptor [4] | adjuvant type [5] | activation of cells via the Toll-like 8 receptor [6]
1 | CCCCCCCCCCCC(=O)CC(=O)N[C@H](COCC[C@@H](CCCCCCC)OC(=O)CCCCCCCCCCC)COP(=O)(O)OCCNC(=O)NCCOP(=O)(O)OC[C@@H](COCC[C@@H](CCCCCCC)OC(=O)CCCCCCCCCCC)NC(=O)CC(=O)CCCCCCCCCCC [ER804057, (1R,6R,22R,27R)-1,27-diheptyl-1,27-bisdodecanoyl-9,19-dihydroxy-9,19-dioxido-14-oxo-6,22-bis[(1,3-dioxotetradecyl)amino]-4,8,10,18,20,24-hexaoxa-13,15-diaza-9,19-diphosphoheptacosan] | on average satisfactory | 8349 | 22 | 393 | 35 | 46 | 15 |  |  | 
2 | CCOCc1nc2c(N)nc3ccccc3c2n1CC(C)(C)O [R-848, 4-amino-2-ethoxymethyl-α,α-dimethyl-1-H-imidazo[4,5c]quinoline-1-ethanol] | on average satisfactory | 8263 | 288 | 1727 | 25 | 34 | 19 | activates the cells | adjuvant of the TH1 type | activates the cells

From US20070087009A1, “Immunostimulant composition comprising at least one toll-like receptor 7 or toll-like receptor 8 agonist and a toll-like receptor 4 agonist” (SANOFI PASTEUR, priority 2003, published 2007)
